Measured values: patent US4742053A, “3-Isoquinoliniomethyl cephalosporin derivatives” (Banyu Pharmaceutical Co., Ltd., priority 1984, dated 1988)
Values after ≈ are worked out from the molar mass of the structure shown. Read-outs that look alike come from different tables or passages of the source.

Columns and labels:
[1] = system: Gram-positive bacteria and Gram-negative bacteria; settings: background, Antimicrobial Agents and Chemotherapy; cited from earlier work
P. cepacia 23 = test: MIC by agar plate dilution method; assay type: cell-based
How it was run: (§1)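 Plate dilution in agar (Sensitivity Disk Agar medium), 10^6 CFU/ml inoculum, MIC in μg/ml.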

S. marcescens No. 16-2 = test: MIC by agar plate dilution method; assay type: cell-based; settings: Serratia marcescens
How it was run: as §1

P. aeruginosa AKR17 = test: MIC by agar plate dilution method; assay type: cell-based; settings: Pseudomonas aeruginosa
How it was run: as §1

A. calcoaceticus No. 14 = test: MIC by agar plate dilution method; assay type: cell-based; settings: Acinetobacter calcoaceticus
How it was run: as §1

E. coli ML1410/Rte16 = test: MIC by agar plate dilution method; assay type: cell-based; settings: Escherichia coli, ML1410/RTE16, read-out: Minimum Inhibitory Concentration, E. coli ML1410/Rte16; 10^6 CFU/ml
How it was run: (§2)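 Agar dilution, Sensitivity Disk Agar; inoculum 10^6 CFU/ml; MIC reported as μg/ml; cefotaxime and ceftazidime run as comparators.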

P. aeruginosa AK109 = test: MIC by agar plate dilution method; assay type: cell-based; settings: Pseudomonas aeruginosa
How it was run: as §1

E. coli CSH2 = test: MIC by agar plate dilution method; assay type: cell-based; settings: Escherichia coli, 10^6 CFU/ml, read-out: Minimum Inhibitory Concentration
How it was run: as §1

P. maltophilia IID 1275 = test: MIC by agar plate dilution method; assay type: cell-based; settings: Stenotrophomonas maltophilia
How it was run: as §1

P. vulgaris OB1043 = test: MIC by agar plate dilution method; assay type: cell-based; settings: Proteus vulgaris
How it was run: as §1

S. aureus NIHJJC-1 = test: MIC by agar plate dilution method; assay type: cell-based; settings: Staphylococcus aureus
How it was run: as §1

E. coli CSH = test: MIC by agar plate dilution method; assay type: cell-based; settings: Escherichia coli, 10^6 CFU/ml, read-out: Minimum Inhibitory Concentration
How it was run: as §1

E. coli NIHJJC-2 = test: MIC by agar plate dilution method; assay type: cell-based; settings: Escherichia coli
How it was run: as §1

P. vulgaris No. 33 = test: MIC by agar plate dilution method; assay type: cell-based; settings: Proteus vulgaris
How it was run: as §1

K. pneumoniae No. 42 = test: MIC by agar plate dilution method; assay type: cell-based; settings: Klebsiella pneumoniae
How it was run: as §1

E. coli W3630/Rms212 = test: MIC by agar plate dilution method; assay type: cell-based; settings: Escherichia coli, W3630/RMS212, read-out: Minimum Inhibitory Concentration, E. coli W3630/Rms212; 10^6 CFU/ml
How it was run: as §2

E. cloaceae Nek 39 = test: MIC by agar plate dilution method; assay type: cell-based; settings: read-out: Minimum Inhibitory Concentration
How it was run: as §1

E. coli C/Rms149 = test: MIC by agar plate dilution method; assay type: cell-based; settings: Escherichia coli, read-out: Minimum Inhibitory Concentration, E. coli C/Rms149; 10^6 CFU/ml
How it was run: as §2

S. aureus JS-1 = test: MIC by agar plate dilution method; assay type: cell-based; settings: Staphylococcus aureus
How it was run: as §1

E. coli W3630/Rms213 = test: MIC by agar plate dilution method; assay type: cell-based; settings: Escherichia coli, W3630/RMS213, read-out: Minimum Inhibitory Concentration, E. coli W3630/Rms213; 10^6 CFU/ml
How it was run: as §2

P. mirabilis JY10 = test: MIC by agar plate dilution method; assay type: cell-based; settings: Proteus mirabilis
How it was run: as §1

C. freundii No. 7 = test: MIC by agar plate dilution method; assay type: cell-based; settings: Citrobacter freundii
How it was run: as §1

bacteria = test: antibacterial spectrum of the compound of Example 6; assay type: cell-based; settings: compared with the compound of Example 3 (E)
E. coli NIHJ = test: bioautography (TLC); assay type: cell-based; settings: TLC Merck silica gel F254, E. coli NIHJ
Experimental: 2.5 mg of the compound obtained in Example 4 (C) was suspended in 0.5 ml of methanol, and 35 μl of concentrated aqueous ammonia was added thereto. The mixture was left to stand at room temperature for 1 hour. […] The fraction of this peak was separated and freeze-dried to obtain 1 mg of the above identified compound.

[2] = Burkholderia cepacia, P. cepacia 23, 10^6 CFU/ml, read-out: Minimum Inhibitory Concentration
[3] = NO.162, S. marcescens No. 16-2, 10^6 CFU/ml, read-out: Minimum Inhibitory Concentration
[4] = AKR17, P. aeruginosa AKR17, 10^6 CFU/ml, read-out: Minimum Inhibitory Concentration
[5] = NO.14, A. calcoaceticus No. 14, 10^6 CFU/ml, read-out: Minimum Inhibitory Concentration
[6] = AK109, P. aeruginosa AK109, 10^6 CFU/ml, read-out: Minimum Inhibitory Concentration
[7] = OB1043, P. vulgaris OB1043, 10^6 CFU/ml, read-out: Minimum Inhibitory Concentration
[8] = NIHJJC1, S. aureus NIHJJC-1, 10^6 CFU/ml, read-out: Minimum Inhibitory Concentration
[9] = NIHJJC2, E. coli NIHJJC-2, 10^6 CFU/ml, read-out: Minimum Inhibitory Concentration
[10] = P. vulgaris No. 33, 10^6 CFU/ml, read-out: Minimum Inhibitory Concentration
[11] = K. pneumoniae No. 42, 10^6 CFU/ml, read-out: Minimum Inhibitory Concentration
[12] = E. cloaceae Nek 39, 10^6 CFU/ml
[13] = JS1, S. aureus JS-1, 10^6 CFU/ml, read-out: Minimum Inhibitory Concentration
[14] = P. mirabilis JY10, 10^6 CFU/ml, read-out: Minimum Inhibitory Concentration
[15] = C. freundii No. 7, 10^6 CFU/ml, read-out: Minimum Inhibitory Concentration
[16] = NIHJJC1, read-out: Minimum Inhibitory Concentration
[17] = NO.42, read-out: Minimum Inhibitory Concentration

Row | SMILES | antibacterial activities [1] | MIC (P. cepacia 23; [2]) [mg/L] | MIC (S. marcescens No. 16-2; [3]) [mg/L] | MIC (P. aeruginosa AKR17; [4]) [mg/L] | MIC (A. calcoaceticus No. 14; [5]) [mg/L] | MIC (E. coli ML1410/Rte16) [mg/L] | MIC (P. aeruginosa AK109; [6]) [mg/L] | MIC (E. coli CSH2) [mg/L] | MIC (P. vulgaris OB1043; [7]) [mg/L] | MIC (S. aureus NIHJJC-1; [8]) [mg/L] | MIC (E. coli CSH) [mg/L] | MIC (E. coli NIHJJC-2; [9]) [mg/L] | MIC (P. vulgaris No. 33; [10]) [mg/L] | MIC (E. coli W3630/Rms212) [mg/L] | MIC (E. cloaceae Nek 39; [12]) [mg/L] | MIC (E. coli C/Rms149) [mg/L] | MIC (S. aureus JS-1; [13]) [mg/L] | MIC (E. coli W3630/Rms213) [mg/L] | MIC (P. mirabilis JY10; [14]) [mg/L] | MIC (C. freundii No. 7; [15]) [mg/L] | further results
1 | CO/N=C(\C(=O)N[C@@H]1C(=O)N2C(C(=O)O)=C(COC(C)=O)CS[C@H]12)c1csc(N)n1 [Cefotaxime, reference compound] | relatively poor antibacterial activities against Gram-positive bacteria, and excellent activities against Gram-negative bacteria, particularly against Enterobacteriacae | 6.25 (≈ 13.7 µM) | 6.25 (≈ 13.7 µM) | > 25 | 25 (≈ 54.9 µM) | ≤ 0.05 | 6.25 (≈ 13.7 µM) | ≤ 0.05 | 0.39 (≈ 0.856 µM) | 0.78 (≈ 1.71 µM) | 0.1 (≈ 0.22 µM) | ≤ 0.05 | ≤ 0.05 | ≤ 0.05 | 0.78 (≈ 1.71 µM) | ≤ 0.05 | 6.25 (≈ 13.7 µM) | 0.2 (≈ 0.439 µM) | ≤ 0.05 | 0.39 (≈ 0.856 µM) | MIC (P. maltophilia IID 1275; IID1275, P. maltophilia IID 1275, 10^6 CFU/ml, read-out: Minimum Inhibitory Concentration): > 25 mg/L; MIC (K. pneumoniae No. 42; [11]): 0.1 mg/L (≈ 0.22 µM)
2 | CC(C)(O/N=C(\C(=O)N[C@@H]1C(=O)N2C(C(=O)[O-])=C(C[n+]3ccccc3)CS[C@H]12)c1csc(N)n1)C(=O)O [Ceftazidime, reference compound] | the most excellent cephalosporin derivative against Gram-positive bacteria including Pseudomonas aeruginosa and Acinetobacter | – | – | – | – | 0.2 (≈ 0.366 µM) | – | ≤ 0.1 | – | – | ≤ 0.1 | – | – | 0.2 (≈ 0.366 µM) | – | 0.2 (≈ 0.366 µM) | – | 0.2 (≈ 0.366 µM) | – | – | MIC (P. cepacia 23; Burkholderia cepacia, 23, read-out: Minimum Inhibitory Concentration): 0.39 mg/L (≈ 0.714 µM); MIC (S. marcescens No. 16-2; NO.162, read-out: Minimum Inhibitory Concentration): 1.56 mg/L (≈ 2.85 µM); MIC (P. aeruginosa AKR17; AKR17, read-out: Minimum Inhibitory Concentration): > 100 mg/L; MIC (A. calcoaceticus No. 14; NO.14, read-out: Minimum Inhibitory Concentration): 6.25 mg/L (≈ 11.4 µM); MIC (P. aeruginosa AK109; AK109, read-out: Minimum Inhibitory Concentration): 1.56 mg/L (≈ 2.85 µM); MIC (P. maltophilia IID 1275; IID1275, read-out: Minimum Inhibitory Concentration): > 25 mg/L; MIC (P. vulgaris OB1043; OB1043, read-out: Minimum Inhibitory Concentration): ≤ 0.1 mg/L; MIC (S. aureus NIHJJC-1; [16]): 3.12 mg/L (≈ 5.71 µM); MIC (E. coli NIHJJC-2; NIHJJC2, read-out: Minimum Inhibitory Concentration): ≤ 0.1 mg/L; MIC (P. vulgaris No. 33; NO.33, read-out: Minimum Inhibitory Concentration): ≤ 0.1 mg/L; MIC (K. pneumoniae No. 42; [17]): 0.39 mg/L (≈ 0.714 µM); MIC (E. cloaceae Nek 39): 0.78 mg/L (≈ 1.43 µM); MIC (S. aureus JS-1; JS1, read-out: Minimum Inhibitory Concentration): 50 mg/L (≈ 91.5 µM); MIC (P. mirabilis JY10; JY10, read-out: Minimum Inhibitory Concentration): ≤ 0.1 mg/L; MIC (C. freundii No. 7; NO.7, read-out: Minimum Inhibitory Concentration): 1.56 mg/L (≈ 2.85 µM)
3 | CON=C(C(=O)NC1C(=O)N2C(C(=O)[O-])=C(C[N+]3(C)CCc4cc(O)c(O)cc4C3)CSC12)c1csc(N)n1 (centres unmarked) [Ex. 3-E, 7-[(Z)-2-(2-aminothiazol-4-yl)-2-methoxyiminoacetamido]-3-(6,7-dihydroxy-2-methyl-1,2,3,4-tetrahydro-2-isoquinolinium)methyl-3-cephem-4-carboxylate] | – | – | 12.5 (≈ 21.8 µM) | 3.12 (≈ 5.43 µM) | 0.39 (≈ 0.679 µM) | 0.1 (≈ 0.174 µM) | 0.78 (≈ 1.36 µM) | 0.1 (≈ 0.174 µM) | 0.78 (≈ 1.36 µM) | – | 0.78 (≈ 1.36 µM) | 0.1 (≈ 0.174 µM) | 0.2 (≈ 0.348 µM) | 0.05 (≈ 0.087 µM) | 0.1 (≈ 0.174 µM) | 0.1 (≈ 0.174 µM) | 6.25 (≈ 10.9 µM) | 1.56 (≈ 2.71 µM) | 0.78 (≈ 1.36 µM) | 3.12 (≈ 5.43 µM) | antibacterial spectrum (bacteria): exhibited the same antibacterial spectrum as the compound of Example 3 (E); antibacterial spot in bioautography (E. coli NIHJ): shows a spot exhibiting antibacterial activities at Rf=0.1; MIC (S. aureus NIHJJC-1; [16]): 1.56 mg/L (≈ 2.71 µM); MIC (K. pneumoniae No. 42; [17]): 0.39 mg/L (≈ 0.679 µM)
4 | CO/N=C(\C(=O)NC1C(=O)N2C(C(=O)[O-])=C(C[N+]3(C)CCc4cc(OC(C)=O)c(OC(C)=O)cc4C3)CSC12)c1csc(N)n1 (centres unmarked) [Ex. 4-C, 7-[(Z)-2-(2-aminothiazol-4-yl)-2-methoxyiminoacetamido]-3-(6,7-diacetoxy-2-methyl-1,2,3,4-tetrahydro-2-isoquinolinium)methyl-3-cephem-4-carboxylate] | – | 0.78 (≈ 1.18 µM) | 6.25 (≈ 9.49 µM) | 1.56 (≈ 2.37 µM) | 0.39 (≈ 0.592 µM) | 0.1 (≈ 0.152 µM) | 0.1 (≈ 0.152 µM) | 0.1 (≈ 0.152 µM) | 1.56 (≈ 2.37 µM) | 3.12 (≈ 4.74 µM) | 1.56 (≈ 2.37 µM) | < 0.05 | 0.2 (≈ 0.304 µM) | ≤ 0.05 | ≤ 0.05 | ≤ 0.1 | 25 (≈ 38 µM) | 1.56 (≈ 2.37 µM) | 0.78 (≈ 1.18 µM) | 6.25 (≈ 9.49 µM) | antibacterial spot in bioautography (E. coli NIHJ): the antibacterial spot of the starting material was at Rf=0.4; MIC (K. pneumoniae No. 42; [11]): 0.2 mg/L (≈ 0.304 µM)
